From publication PMC8733726, “Dioctanoyl Ultrashort Tetrabasic β-Peptides Sensitize Multidrug-Resistant Gram-Negative Bacteria to Novobiocin and Rifampicin” (Frontiers in Microbiology, 2021)
≈ marks a conversion by molar mass, not a printed value. Like-named read-outs stand apart in the source and are kept apart here.

Tests used:
[1] = test system: wild-type P. aeruginosa PAO1; experiment: microbe, parasite or virus in culture; assay type: cell-based, Pseudomonas aeruginosa; settings: PAO1
Outline: (§1)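 Checkerboard in MHB with 5 × 10^5 CFU/mL inoculum, antibiotic and adjuvant each serially 2-fold diluted on crossed axes. Growth read as turbidity at 590 nm; FICI is the sum of each agent's MIC in combination divided by its MIC alone.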

[2] = test system: wild-type A. baumannii ATCC 17978; experiment: Checkerboard assay; assay type: cell-based, Acinetobacter baumannii; settings: ATCC 17978
Outline: as §1

[3] = test system: wild-type E. coli ATCC 25922; experiment: microbe, parasite or virus in culture; assay type: cell-based, Escherichia coli
Outline: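 2-fold antibiotic × adjuvant checkerboard in MHB; inoculum 5 × 10^5 CFU/mL; 37°C, 18 h; OD590 read. FICI = FIC antibiotic + FIC adjuvant; ≤ 0.5 synergistic, 0.5 < x ≤ 4 additive, >4 antagonistic.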

[4] = test system: MDR clinical isolates of P. aeruginosa; experiment: Checkerboard assay, MDR clinical isolates; assay type: cell-based, Pseudomonas aeruginosa; settings: antibiotic alone
Experimental: (§2) The adjuvant activities of dUSTBβPs were evaluated using checkerboard assay as previously described ([Berry et al., 2019]). Overnight-grown bacterial culture diluted in saline to 0.5 McFarland turbidity was successively diluted 1:50 in MHB to achieve a final concentration of 5 × 10^5 CFU/mL for inoculation. The antibiotic and adjuvant were serially diluted 2-fold along the x-axis and y-axis, respectively, resulting in varying concentrations of both agents in each well. Subsequently, the 96-well plate was incubated with equal volumes of bacterial inoculum at 37°C for 18 h. Confirmation of turbidity was done using an EMax Plus microplate reader (Molecular Devices, United States) at a wavelength of 590 nm. Wells comprising MHB alone or in the presence of bacterial cells were used as negative or positive controls, respectively. Fractional inhibitory concentration index (FICI) is determined by adding the FICs of both antibiotic and adjuvant. The FIC of the antibiotic is calculated by dividing the MIC of the antibiotic in the presence of the adjuvant by the MIC of the antibiotic alone. Similarly, the FIC of the adjuvant is calculated by dividing the MIC of the adjuvant in the presence of the antibiotic by the MIC of the adjuvant alone. FICI ≤ 0.5, 0.5 < x ≤ 4, and >4 were deemed synergistic, additive, and antagonistic, respectively ([Meletiadis et al., 2010]).

[5] = test system: MDR clinical isolates of A. baumannii; assay type: cell-based, Acinetobacter baumannii; settings: for MICantibiotic: antibiotic alone
Experimental: as §2

MDR E. coli = assay type: cell-based, Escherichia coli; settings: antibiotic alone
Experimental: as §2

MDR K. pneumoniae = assay type: cell-based, Klebsiella pneumoniae; settings: for MICantibiotic: antibiotic alone
Experimental: as §2

MDR E. cloacae = experiment: Checkerboard assay, MDR clinical isolates; assay type: cell-based, Enterobacter cloacae; settings: antibiotic alone
Experimental: as §2

MDR A. baumannii 110193 = experiment: Time-kill assay; assay type: cell-based, Acinetobacter baumannii; settings: 32 μg/mL novobiocin or 0.5 μg/mL rifampicin alone
Experimental: (§3) Overnight-grown bacterial culture diluted in PBS to 0.5 McFarland turbidity was successively diluted 1:50 in lysogeny broth (LB). Cell cultures in the presence of dUSTBβP 3, novobiocin, or rifampicin, or combinations of adjuvant and antibiotic were incubated at 37°C. At designated intervals, 100 μL aliquots acquired from each culture tube were serially diluted in PBS and plated on LB agar plates.

[6] = test system: wild-type A. baumannii ATCC 17978; experiment: Time-kill assay; assay type: cell-based, Acinetobacter baumannii; settings: 32 μg/mL novobiocin or 0.5 μg/mL rifampicin alone
Experimental: as §3

in vitro [7] = assay type: cell-based; settings: human
Experimental: The degree of hemolysis induced by dUSTBβPs was determined by the amount of hemoglobin released from human erythrocytes upon incubation. Fresh human blood supplied by a commercial vendor was obtained from normal healthy volunteers following informed consent. The agent of interest was serially diluted in vehicle consisting of phosphate-buffered saline (PBS), saline, 5% glucose, or equivalents. The samples were incubated with gentle mixing at 37°C for 45 min and were subsequently centrifuged. The supernatant (plasma layer) was removed and centrifuged once more to completely pellet the cells. The plasma layer was diluted with Drabkin’s reagent and analyzed at a wavelength of 540 nm. Experiments were conducted in triplicates, and a calibration curve prepared by diluting blood (after addition of vehicle) was used to quantitate heme release. The vehicle or Triton X-100 were used as negative or positive controls, respectively.

P. aeruginosa PAO1 = assay type: cell-based, Pseudomonas aeruginosa; settings: PAO1, 18 h
Experimental: (§4) The in vitro antibacterial activities of dUSTBβPs were evaluated using microbroth dilution susceptibility test, in accordance with the Clinical and Laboratory Standards Institute (CLSI) guidelines ([Clinical and Laboratory Standards Institute, 2019]). Overnight-grown bacterial culture diluted in saline to 0.5 McFarland turbidity was successively diluted 1:50 in Mueller-Hinton broth (MHB) to achieve a final concentration of 5 × 10^5 colony forming units (CFU)/mL for inoculation. The agents were serially diluted 2-fold in MHB on a 96-well plate; mixed with bacterial inoculum of equal volumes, and incubated at 37°C for 18 h. Antibacterial activity was determined by the minimum inhibitory concentration (MIC), which is the lowest concentration of agent required for inhibition of visible bacterial growth in the form of turbidity. Confirmation of turbidity was done using an EMax Plus microplate reader (Molecular Devices, United States) at a wavelength of 590 nm. Wells comprising MHB alone or MHB inoculated with bacteria were used as negative or positive controls, respectively.

A. baumannii ATCC 17978 [8] = assay type: cell-based, Acinetobacter baumannii; settings: ATCC 17978, 18 h
Experimental: as §4

E. coli ATCC 25922 [9] = assay type: cell-based, Escherichia coli; settings: ATCC 25922, 18 h
Experimental: as §4

A. baumannii ATCC 17978 [10] = assay type: cell-based, Acinetobacter baumannii; settings: not told
Experimental: (§5) The ability of dUSTBβP 3 to permeabilize the OM of Acinetobacter baumannii ATCC 17978 and Escherichia coli ATCC 25922 was assessed using 1-N-phenylnaphthylamine (NPN) as previously described with minor modifications ([Yang et al., 2017]; [Akhoundsadegh et al., 2019]). Overnight grown culture was subcultured (1 in 100) in fresh LB broth and grown to a mid-logarithmic phase (OD600 = 0.4–0.6). […] NPN (10 μM final concentration) was added to a black 96-well plate containing the cell culture and incubated in 5 mM HEPES (pH 7.2) supplemented with 5 mM glucose and 5 μM carbonyl cyanide 3-chlorophenylhydrazone at room temperature for 30 min in darkness. Varying concentrations of compound were added onto the suspension, and the resulting change in NPN fluorescence was measured continuously (every 30 s) on a SpectraMax M2 microplate reader (Molecular Devices, United States) at an excitation wavelength of 350 nm and an emission wavelength of 420 nm. Cells with NPN and the OM permeabilizer PMBN served as a positive control, while cells with NPN alone served as a negative control. Three replicates were conducted, and the data were corrected for any background fluorescence.

E. coli ATCC 25922 [11] = assay type: cell-based, Escherichia coli; settings: not told
Experimental: as §5

in vitro [12] = settings: human, plasma
Experimental: Stability of dUSTBβP 3 was evaluated in human plasma. […] The supernatant was analyzed by HPLC-tandem mass spectrometry using selected reaction monitoring. The % compound remaining was determined by comparing peak areas at different time points to time zero. Assuming first-order kinetics, the half-life was extrapolated from the slope of the initial linear range of the logarithmic curve of compound remaining over time. Experiments were performed in duplicates, and the reference compounds include propantheline and propoxycaine.

in vitro [13] = assay type: cell-based; settings: human; remark: listed apart in the source
Experimental: (§6) Cell viability assay was performed essentially as previously described ([[…] et al., 2019]). […] The cells were detached with trypsin and equal numbers of cells (8,000 cells in 50 μL) were dispersed into five rows of each column in 96-well plate; the remaining three rows of each column, designated as blanks, received 50 μL of the media without cells. After 24 h incubation, aliquots of 50 μL of dUSTBβP 3 at varying concentrations were added to each well and incubated for 48 h. […] Values from the wells without cells (blank wells) were subtracted from the corresponding sample wells and cell viability values of the treated samples relative to the vehicle controls set to 100% was determined. […] The results represent the mean ± SD of two independent experiments with five samples per experiment. […] Colistin was used as a negative control and doxorubicin, an anticancer drug, was used as a positive control.

Cell viability assay = assay type: cell-based; settings: human
Experimental: as §6

[14] = antibiotic with dUSTBβP 3 at 8 μg/mL

CO[C@H]1/C=C/O[C@@]2(C)Oc3c(C)c(O)c4c(O)c(c(/C=N/N5CCN(C)CC5)c(O)c4c3C2=O)NC(=O)/C(C)=C\C=C\[C@H](C)[C@H](O)[C@@H](C)[C@@H](O)[C@@H](C)[C@H](OC(C)=O)[C@@H]1C [Rifampicin]
MICantibiotic ([1]; antibiotic alone): 16 µg/mL
MICcombo [1, 14]: 0.25 µg/mL
MIC ([1]; Pseudomonas aeruginosa, 18 h, antibiotic alone (Supplementary Table 7), read-out: MICantibiotic): 16 µg/mL (≈ 19.4 µM)
MICantibiotic ([2]; antibiotic alone): 2 µg/mL
MICcombo [2, 14]: 0.008 µg/mL
MIC ([2]; Acinetobacter baumannii, ATCC17978, 18 h, antibiotic alone (Supplementary Table 7), read-out: MICantibiotic): 2 µg/mL
MICantibiotic ([3]; ATCC 25922, antibiotic alone): 4 µg/mL
MICcombo ([3]; ATCC 25922, antibiotic with dUSTBβP 3 at 8 μg/mL): 0.008 µg/mL
MIC ([3]; Escherichia coli, ATCC25922, 18 h, ATCC 25922, antibiotic alone (Supplementary Table 7), read-out: MICantibiotic): 4 µg/mL
MICantibiotic ([4]; PA259-96196): 16 µg/mL
MICantibiotic ([4]; PA262-101856): 512 µg/mL
MICantibiotic ([4]; PA264-104354): 16 µg/mL
MICantibiotic ([4]; PA91433): 16 µg/mL
MICantibiotic ([4]; PA114228): 16 µg/mL
MICantibiotic [5]; 92247: 2 µg/mL
MICantibiotic [5]; 110193: 1 µg/mL
MICantibiotic ([5]; AB027): 1 µg/mL
MICantibiotic ([5]; AB031): 1 µg/mL
MICantibiotic ([5]; LAC-4): 0.5 µg/mL
MICantibiotic (MDR E. coli; 94393): 8 µg/mL
MICantibiotic (MDR E. coli; 94474): 8 µg/mL
MICantibiotic (MDR E. coli; 107115): 32 µg/mL
MICantibiotic (MDR K. pneumoniae; 113250): 32 µg/mL
MICantibiotic (MDR K. pneumoniae; 113254): 8 µg/mL
MICantibiotic (MDR K. pneumoniae; 116381): > 256 µg/mL
MICantibiotic (MDR K. pneumoniae; 116381, listed as rifampicin): 512 µg/mL
MICantibiotic (MDR E. cloacae; 117029): 8 µg/mL
MICantibiotic (MDR E. cloacae; 118564): 8 µg/mL
MICantibiotic (MDR E. cloacae; 121187): 2 µg/mL
Time-kill outcome (MDR A. baumannii 110193): Bacteriostatic
Time-kill outcome [6]: Bacteriostatic

CCCCCCCC(=O)NC(CCCNC(=N)N)CC(=O)NCCCN(CCCNC(=O)CC(CCCNC(=N)N)NC(=O)CCCCCCC)CC(=O)NC(CCCNC(=N)N)CC(N)=O (stereo not shown) [dUSTBβP 3]
hemolysis at 45 min, 1.5625 µM (in vitro [7]): 3.23 ± 0.08%
hemolysis at 45 min, 3.125 µM (in vitro [7]): 3.32 ± 0.16%
hemolysis at 45 min, 6.25 µM (in vitro [7]): 3.18 ± 0.05%
hemolysis at 45 min, 12.5 µM (in vitro [7]): 3.28 ± 0.12%
hemolysis at 45 min, 25 µM (in vitro [7]): 3.35 ± 0.09%
hemolysis at 45 min, 50 µM (in vitro [7]): 3.43 ± 0.49%
hemolysis at 45 min, 100 µM (in vitro [7]): 4.17 ± 1.29%
hemolysis at 45 min, 200 µM (in vitro [7]): 4.59 ± 2.42%
MIC (P. aeruginosa PAO1): 128 µg/mL (≈ 135 µM)
MIC (A. baumannii ATCC 17978 [8]): >128 µg/mL
MIC (E. coli ATCC 25922 [9]): 128 µg/mL (≈ 135 µM)
FICI ([3]; ATCC 25922, 18 h): 0.064
MIC of compound alone ([5]; MDR clinical isolates of, 18 h): 16 µg/mL
FICI (MDR K. pneumoniae; MDR, 18 h): < 0.156
OM permeabilization, NPN fluorescence (A. baumannii ATCC 17978 [10]): dose-dependently permeabilizes the OM
OM permeabilization, NPN fluorescence (E. coli ATCC 25922 [11]): dose-dependently permeabilizes the OM
half-life at 1 μM (in vitro [12]): 626 ± 222 min
remaining at 2 h, 1 μM (in vitro [12]): 86.8 ± 3.7%
viability at 48 h, 125 µM (in vitro [13]): 86.4 ± 8.7%
CC50 at 48 h (Cell viability assay): 101 µM

COc1cccc2c1C(=O)c1c(O)c3c(c(O)c1C2=O)C[C@@](O)(C(=O)CO)C[C@@H]3O[C@H]1C[C@H](N)[C@H](O)[C@H](C)O1 [doxorubicin]
viability at 48 h, 1 µM (in vitro [13]): 16.6 ± 2.3%
CC50 at 48 h (Cell viability assay): 0.032 µM

polymyxin B nonapeptide [PMBN]
OM permeabilization, NPN fluorescence (A. baumannii ATCC 17978 [10]): increased fluorescence of NPN
OM permeabilization, NPN fluorescence (E. coli ATCC 25922 [11]): increased fluorescence of NPN
